Results published in ChEMBL document CHEMBL1144607, “Novel hydroxamic acid-related phosphinates: inhibition of neutral aminopeptidase N (APN)” (Bioorg Med Chem Lett, 2007).
Active and inactive are the calls of the source. The rule behind the calls is not given here.

What was measured:
Aminopeptidase N [1] = biological target: T1, Aminopeptidase N (Homo sapiens, UniProt P15144); assay: Inhibition of APN at <300 uM
Aminopeptidase N [2] = biological target: T1, Aminopeptidase N; assay: Inhibition of APN

T1 sequence (P15144 whole entry): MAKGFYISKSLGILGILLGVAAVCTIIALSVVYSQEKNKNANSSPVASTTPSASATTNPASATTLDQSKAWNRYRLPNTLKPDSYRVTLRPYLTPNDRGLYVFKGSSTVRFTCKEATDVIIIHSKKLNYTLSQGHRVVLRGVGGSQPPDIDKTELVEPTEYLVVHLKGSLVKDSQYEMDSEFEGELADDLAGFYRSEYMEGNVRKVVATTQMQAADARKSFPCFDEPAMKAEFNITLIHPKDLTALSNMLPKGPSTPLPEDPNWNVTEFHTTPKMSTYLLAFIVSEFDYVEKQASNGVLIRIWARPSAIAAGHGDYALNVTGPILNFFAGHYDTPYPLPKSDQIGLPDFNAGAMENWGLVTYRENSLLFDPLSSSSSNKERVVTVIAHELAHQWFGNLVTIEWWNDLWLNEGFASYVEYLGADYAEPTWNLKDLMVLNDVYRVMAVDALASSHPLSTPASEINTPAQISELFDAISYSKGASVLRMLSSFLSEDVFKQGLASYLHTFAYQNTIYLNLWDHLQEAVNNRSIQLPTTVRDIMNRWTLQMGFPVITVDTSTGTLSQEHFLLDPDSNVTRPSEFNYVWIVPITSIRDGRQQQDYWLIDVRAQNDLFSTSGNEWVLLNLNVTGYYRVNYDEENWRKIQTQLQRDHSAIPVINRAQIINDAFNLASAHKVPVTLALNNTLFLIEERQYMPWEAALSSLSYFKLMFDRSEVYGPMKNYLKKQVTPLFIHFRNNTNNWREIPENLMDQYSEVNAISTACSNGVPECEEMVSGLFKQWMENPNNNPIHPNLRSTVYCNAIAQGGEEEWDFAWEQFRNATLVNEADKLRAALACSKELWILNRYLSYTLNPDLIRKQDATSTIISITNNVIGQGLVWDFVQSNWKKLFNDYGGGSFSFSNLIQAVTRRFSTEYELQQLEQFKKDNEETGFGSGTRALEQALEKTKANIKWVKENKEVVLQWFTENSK

| Activity (Aminopeptidase N [1]) | Structure (SMILES) | IC50 (Aminopeptidase N [2]) [µM] |
| --- | --- | --- |
| inactive | CCNC(=O)P(=O)(O)C(N)C(C)C (centres undefined) |  |
|  | CC(C)CC(N)P(=O)(O)C(C)N (centres undefined) | 155 |
| inactive | CCCCCNC(=O)P(=O)(O)C(N)Cc1ccccc1 (centres undefined) |  |
|  | CC(C)C(N)P(=O)(O)C(=O)Nc1ccccc1 (centres undefined) | 160 |
